Laboratory results reported in ChEMBL document CHEMBL4152326 (2018).

How the values were obtained:
Type in all cases: functional
[1] = test system: Pseudomonas aeruginosa; assay: Antimicrobial activity against IMP-1 producing Pseudomonas aeruginosa SR27001 in presence of human apo-transferrin by broth microdilution method
[2] = test system: Stenotrophomonas maltophilia; assay: Antimicrobial activity against L-1 producing Stenotrophomonas maltophilia SR21970 in presence of human apo-transferrin by broth microdilution method
[3] = test system: Pseudomonas aeruginosa; assay: Antimicrobial activity against Pseudomonas aeruginosa 27060deltaR1 harboring deletion of R1 plasmid in presence of human apo-transferrin by broth microdilution method
[4] = test system: Pseudomonas aeruginosa; assay: Antimicrobial activity against VIM-2 producing Pseudomonas aeruginosa SBRKM-28 in presence of human apo-transferrin by broth microdilution method
[5] = test system: Acinetobacter baumannii; assay: Antimicrobial activity against OXA-23/OXA-58 producing Acinetobacter baumannii SR27323 in presence of human apo-transferrin by broth microdilution method
[6] = test system: Pseudomonas aeruginosa; assay: Antimicrobial activity against AmpC overproducing Pseudomonas aeruginosa SR24-12 in presence of human apo-transferrin by broth microdilution method
[7] = test system: Escherichia coli; assay: Antimicrobial activity against SHV-4 producing Escherichia coli ATCC BAA-200 in presence of human apo-transferrin by broth microdilution method
[8] = test system: Pseudomonas aeruginosa; assay: Antimicrobial activity against IMP-1 producing Pseudomonas aeruginosa SR27060 in presence of human apo-transferrin by broth microdilution method
[9] = test system: Klebsiella pneumoniae; assay: Antimicrobial activity against KPC-2 producing Klebsiella pneumoniae ATCC BAA-1705 in presence of human apo-transferrin by broth microdilution method
[10] = test system: Pseudomonas aeruginosa; assay: Antimicrobial activity against Pseudomonas aeruginosa SR24 in presence of human apo-transferrin by broth microdilution method

| SMILES | MIC [1] | MIC [2] | MIC [3] | MIC [4] | MIC [5] | MIC [6] | MIC [7] | MIC [8] | MIC [9] | MIC [10] |
| --- | --- | --- | --- | --- | --- | --- | --- | --- | --- | --- |
| Nc1nc(/C(=N/OCc2cccc(C(=O)O)c2)C(=O)N[C@@H]2C(=O)N3C(C(=O)[O-])=C(C[N+]4(CCNC(=O)c5ccc(O)c(O)c5Cl)CCCC4)CS[C@H]23)cs1 | 1 µg/mL | 2 µg/mL | 2 µg/mL | 0.125 µg/mL | 0.5 µg/mL | 0.5 µg/mL | 16 µg/mL | 8 µg/mL | 2 µg/mL | 0.25 µg/mL |
| Nc1nc(/C(=N/O[C@H](C(=O)O)c2ccccc2)C(=O)N[C@@H]2C(=O)N3C(C(=O)[O-])=C(C[N+]4(CCNC(=O)c5ccc(O)c(O)c5Cl)CCCC4)CS[C@H]23)cs1 | 0.5 µg/mL | 0.25 µg/mL | 0.5 µg/mL | 0.125 µg/mL | 0.25 µg/mL | 0.25 µg/mL | 0.5 µg/mL | 4 µg/mL | 0.031 µg/mL | 0.25 µg/mL |
| C[C@H](O/N=C(\C(=O)N[C@@H]1C(=O)N2C(C(=O)[O-])=C(C[N+]3(CCNC(=O)c4ccc(O)c(O)c4Cl)CCCC3)CS[C@H]12)c1csc(N)n1)C(=O)O | 1 µg/mL | 0.5 µg/mL | 1 µg/mL | 0.125 µg/mL | 1 µg/mL | 0.25 µg/mL | 4 µg/mL | 2 µg/mL | 0.063 µg/mL | 0.25 µg/mL |
| CC(C)(O/N=C(\C(=O)N[C@@H]1C(=O)N2C(C(=O)[O-])=C(C[N@+]34CCC[C@H]3CN(C(=O)c3ccc(O)c(O)c3Cl)CC4)CS[C@H]12)c1csc(N)n1)C(=O)O | 0.5 µg/mL | 0.5 µg/mL | 1 µg/mL | 0.25 µg/mL | 2 µg/mL | 0.5 µg/mL | 2 µg/mL | 4 µg/mL | 0.063 µg/mL | 0.25 µg/mL |
| CC(C)(O/N=C(\C(=O)N[C@@H]1C(=O)N2C(C(=O)[O-])=C(C[n+]3cc(NC(=O)c4ccc(O)c(O)c4Cl)c4n3CCN4)CS[C@H]12)c1csc(N)n1)C(=O)O | 16 µg/mL | > 16 µg/mL | 0.5 µg/mL | 0.5 µg/mL | 0.5 µg/mL | 0.5 µg/mL | 1 µg/mL | 16 µg/mL | 0.125 µg/mL | 0.25 µg/mL |
| CC(C)(O/N=C(\C(=O)N[C@@H]1C(=O)N2C(C(=O)[O-])=C(C[N+]3(CCC(=O)Nc4ccc(O)c(O)c4Cl)CCCC3)CS[C@H]12)c1csc(N)n1)C(=O)O | 2 µg/mL | 1 µg/mL | 1 µg/mL | 0.25 µg/mL | 2 µg/mL | 0.5 µg/mL | 2 µg/mL | 2 µg/mL | 0.25 µg/mL | 0.25 µg/mL |
| CC(C)(O/N=C(\C(=O)N[C@@H]1C(=O)N2C(C(=O)[O-])=C(C[n+]3ccc(NC(=O)c4ccc(O)c(O)c4Cl)cc3)CS[C@H]12)c1csc(N)n1)C(=O)O | 2 µg/mL | 1 µg/mL | 0.5 µg/mL | 0.125 µg/mL | 2 µg/mL | 0.25 µg/mL | 2 µg/mL | 2 µg/mL | 0.25 µg/mL | 0.063 µg/mL |
| CC(C)(O/N=C(\C(=O)N[C@@H]1C(=O)N2C(C(=O)[O-])=C(C[N+](C)(C)CCNC(=O)c3ccc(O)c(O)c3Cl)CS[C@H]12)c1csc(N)n1)C(=O)O | > 32 µg/mL | > 32 µg/mL | 2 µg/mL | 0.25 µg/mL | 0.5 µg/mL | 4 µg/mL | > 32 µg/mL | 32 µg/mL | 0.5 µg/mL | 0.063 µg/mL |
| CC(C)(O/N=C(\C(=O)N[C@@H]1C(=O)N2C(C(=O)[O-])=C(C[N+](C)(C)C3CCN(C(=O)c4ccc(O)c(O)c4Cl)CC3)CS[C@H]12)c1csc(N)n1)C(=O)O | 4 µg/mL | 1 µg/mL | 1 µg/mL | 0.5 µg/mL | 2 µg/mL | 1 µg/mL | 2 µg/mL | 4 µg/mL | 0.125 µg/mL | 0.5 µg/mL |
